Values of other authors as cited in article PMC9877316, “Identification of a novel P2X7 antagonist using structure-based virtual screening” (Frontiers in Pharmacology, 2023).

Key:
Design in all cases: method as in Villoutreix et al., 2011
tyrosine kinase Syk [1] = details: ref Villoutreix et al., 2011; cited from earlier work
tyrosine kinase Syk [2] = details: antibody displacement assay; ref Villoutreix et al., 2011; cited from earlier work
mast cell degranulation = details: ref Villoutreix et al., 2011; read-out: IC50 for inhibiting mast cell degranulation; cited from earlier work

For `CCOC(=O)C1=C(C)NC2=C(C(=O)c3ccccc32)C1c1cc(Br)ccc1OCC(=O)O` (stereo not drawn) [Chembridge ID 6422575, (4-bromo-2-[3-(ethoxycarbonyl)-2-methyl-5-oxo-4,5-dihydro-1H-indeno[1,2-b]pyridin-4-yl]phenoxy) acetic acid], the Kd (tyrosine kinase Syk [1]) is listed as 6.2 µM, the “inhibition of antibody binding” value (tyrosine kinase Syk [2]) is listed as 81% and the IC50 (mast cell degranulation) is listed as ≥ 20 µM.
